From patent US20250351818A1, “PESTICIDAL BAIT COMPOSITION AND PROCESSES RELATED THERETO” (priority 2022, published 2025)

How the values were obtained:
[1] = system: phytoplasma and spiroplasma (corn stunt); experiment: Corn field naturally infected, foliar kasugamycin, severity of the stunts; type: in vivo; conditions: 100 g ai/ha; for severity of the disease (percent of leaf area infected, visual): 1 application/week for 4 weeks
Description: Another major problem is corn stunt disease. S. kunkelii, a spiroplasma often referred to as corn stunt spiroplasma and a Maize bushy stunt phytoplasma (MBSP) can both survive in the maize leafhopper (Dalbulus maidis), and it causes corn stunt disease. Foliar use of insecticides can be used to partially control Dalbulus maidis, however, the use of this method to control corn stunt disease is not very successful. kasugamycin (Ksg) is an aminoglycoside antibiotic. However, we have discovered that mixing kasugamycin with pesticides can control the Dalbulus maidis and S. kunkelii at the same time thereby helping to avoid corn stunt disease brought by the vector Dalbulus maidis. The amount of kasugamycin can vary from 20 g ai/ha to 100 g ai/ha in mixture with the insecticides when used in foliar applications, for example, spinetoram and sulfoxaflor at 18 g ai/ha+32 g ai/ha respectively, or spinetoram and methomyl at 18 g ai/ha and 220 g ai/ha, respectively. However, with the bait composition the amount of kasugamycin to use in the pesticidal bait compositions, based on the total weight of a pesticidal bait composition, is from about 2.0 weight percent to about 0.01 weight percent, preferably from about 1.0 weight percent to about 0.1 weight percent, and even more preferably from about 0.5 weight percent to about 0.25 weight percent. Of course, the kasugamycin weight percent will vary depending on various factors such as, local environmental conditions and pest control effects desired, among other factors.
A corn field with plants naturally infected by both phytoplasma and spiroplasma was sprayed with kasugamycin at 100 g ai/ha. The plants with 4 true-leaves were sprayed with 1 application/week for 4 weeks. Fifteen days after the first application and 15 days after the fourth spraying the severity of the stunts were evaluated visually, considering the percent of leaf area infected (showing symptoms). […]

[2] = system: stunts (corn stunt disease); experiment: Field corn, four foliar applications of pesticides solo and in mixture with kasugamycin, incidence of stunts and yield; type: in vivo; conditions: four foliar applications 7 days apart from V2; 91 days after sowing
Description: Another major problem is corn stunt disease. S. kunkelii, a spiroplasma often referred to as corn stunt spiroplasma and a Maize bushy stunt phytoplasma (MBSP) can both survive in the maize leafhopper (Dalbulus maidis), and it causes corn stunt disease. Foliar use of insecticides can be used to partially control Dalbulus maidis, however, the use of this method to control corn stunt disease is not very successful. kasugamycin (Ksg) is an aminoglycoside antibiotic. However, we have discovered that mixing kasugamycin with pesticides can control the Dalbulus maidis and S. kunkelii at the same time thereby helping to avoid corn stunt disease brought by the vector Dalbulus maidis. The amount of kasugamycin can vary from 20 g ai/ha to 100 g ai/ha in mixture with the insecticides when used in foliar applications, for example, spinetoram and sulfoxaflor at 18 g ai/ha+32 g ai/ha respectively, or spinetoram and methomyl at 18 g ai/ha and 220 g ai/ha, respectively. […]
Four foliar applications of pesticides solo and in mixture with kasugamycin were performed in corn plants in field starting at V2 (2 true-leaves) stage of the crop with 7 days apart. […] The incidence of plants with symptoms of stunts at 53 and 91 days after sowing and the yield were assessed. […]

C[C@H]1O[C@H](O[C@H]2[C@H](O)[C@@H](O)[C@@H](O)[C@H](O)[C@@H]2O)[C@@H](N)C[C@@H]1NC(=N)C(=O)O [kasugamycin]
severity of the disease (percent of leaf area infected, visual) ([1]; 15 days after the fourth application): 43% | severity of the disease (percent of leaf area infected, visual) ([1]; fifteen days after the first application): 27% | reduction of the progression of the disease vs untreated ([1]; 15 days after the fourth application (43% vs 54% untreated)): 20% | reduction of the progression of the disease in comparison with the untreated [2]: 11%
